The target of one experiment is human BuChE (Homo sapiens, UniProt P06276). As to the kind of experiment: Esterase activity assay (modified Ellman), BuChE with butyrylthiocholine. It counts as biochemical. The following applies: for Ki: substrate butyrylthiocholine, pH 8.0, room temperature, from slopes of Lineweaver-Burk plots vs log concentration, read-out: Esterase Ki BuChE(h). Here is the method: (§1) The esterase activity of BuChE or AChE was determined by a modification of the method described by Ellman et al. (32), using a buffered 5,5′-dithiobis (2-nitrobenzoic acid) (DTNB) solution. Stock DTNB solution consisted of 10 mM DTNB with 18 mM sodium bicarbonate in 0.1 M phosphate buffer, pH 7.0. Working DTNB solution was prepared by mixing 3.6 mL of 10 mM stock DTNB solution with 96.4 mL of 0.1 M phosphate buffer at pH 8.0. The assay was carried out by mixing 2.7.mL of buffered DTNB working solution (pH 8.0), 0.1 mL of BuChE or AChE in 0.005% aqueous gelatin (1 U/mL), and 0.1 mL of 50% aqueous acetonitrile, or a solution of a 2-pyridone compound of the invention in the same solvent, in a quartz cuvette of 1 cm path-length. Absorbance of this solution was calibrated to zero and the reaction was commenced by adding 0.1 mL of aqueous acetylthiocholine (AcSCh) or butyrylthiocholine (BuSCh) solutions of varying concentration (between 1.9 mM and 15 mM). The final volume was always 3.0 mL. The reactions were carried out at room temperature. The rate of change of absorbance (ΔA/min), reflecting the rate of hydrolysis of BuSCh or AcSCh, was recorded every 5 seconds for a total of 1 minute using a Milton-Roy uv-visible spectrophotometer set at λ=412 nm.
(§2) The slopes of Lineweaver-Burk plots versus Log of inhibitor concentration were used to determine the inhibitor constant Ki.
(§3) The effect of increasing amount of exemplified 2-pyridone compounds (Examples 1 to 10) on the activity of human BuChE and AChE is shown in FIGS. 1 to 10.
(§4) The compounds of Examples 1 to 9 inhibited BuChE and AChE to varying degrees. Graphs of the slopes obtained from Lineweaver-Burk double reciprocal graphs versus log of the concentration of each compound gave the inhibition constant Ki for each compound.
(Ellman's reagent forms a yellow product with free thiols.)

For a further experiment, the target named is human AChE (Homo sapiens, UniProt P22303). Nature of the experiment: Esterase activity assay (modified Ellman), AChE with acetylthiocholine. The following applies: substrate acetylthiocholine; for Ki: read-out: Esterase Ki AChE(h). In kind it is biochemical. Here is the method:
as §1, §2, §3, §4

A further experiment concerns human trypsin. As to the kind of experiment: Trypsin activity assay (BAPNA hydrolysis, HPLC of PNA), trypsin. Conditions: substrate BAPNA, Tris buffer pH 8.0, 40° C.; FIG. 12. In kind it is biochemical. The method, then: (§5) The effect of 2-pyridone compounds on trypsin-like enzymatic activity associated with BuChE and that of human trypsin was determined using Nα-benzoyl-DL-arginine-p-nitroanilide (BAPNA) as the substrate. The same procedure was used to study the effect of the compounds on BuChE-trypsin mixture. Reactions were performed in 0.06 M Tris buffer at pH 8.0. […] The incubations were carried out in 1.5 mL Eppendorf tubes by mixing 0.85 mL of 0.06 M Tris buffer (pH 8.0), 0.07 mL of up to 10 mM BAPNA, 0.03 mL of 50% aqueous acetonitrile, or a solution of 2-pyridone compound (typically, a 5 mM working solution) in the same solvent, and 0.05 mL of the enzyme solution (0.5-1.5 U of trypsin in 1 mM hydrochloric acid, or up to 5.0 U of BuChE in 0.005% aqueous gelatin). The final volume of the assay mixture was always 1.0 mL. The enzyme reaction mixture was incubated at 40° C. for 15-45 hours. The use of 1.5 U of trypsin gave an amount of p-nitroaniline (PNA) produced upon cleavage of BAPNA by trypsin after 22 hours of incubation that was similar to the amount of product formed by trypsin-like activity associated with 5 U of BuChE under the same conditions.
(§6) The concentration of the PNA was determined by means of high performance liquid chromatography (HPLC). […] The rate of formation of PNA was calculated by using the following formula: […]

Experiment [1] has as its system trypsin-like enzymatic activity associated with BuChE. Nature of the experiment: Trypsin activity assay (BAPNA hydrolysis, HPLC of PNA), trypsin-like activity associated with BuChE. It counts as biochemical, human. The following applies: substrate BAPNA, Tris buffer pH 8.0, 40° C.; FIG. 11. The method, then:
as §5, §6

[2] abbreviates: pH 8.0, room temperature, from slopes of Lineweaver-Burk plots vs log concentration.

One may read the Ki as the dissociation constant of the complex between target and ligand, obtained from inhibition or displacement.

Entries after “also recorded” stand apart in the source; their conditions may differ.

human BuChE, sequence (P06276 29-602): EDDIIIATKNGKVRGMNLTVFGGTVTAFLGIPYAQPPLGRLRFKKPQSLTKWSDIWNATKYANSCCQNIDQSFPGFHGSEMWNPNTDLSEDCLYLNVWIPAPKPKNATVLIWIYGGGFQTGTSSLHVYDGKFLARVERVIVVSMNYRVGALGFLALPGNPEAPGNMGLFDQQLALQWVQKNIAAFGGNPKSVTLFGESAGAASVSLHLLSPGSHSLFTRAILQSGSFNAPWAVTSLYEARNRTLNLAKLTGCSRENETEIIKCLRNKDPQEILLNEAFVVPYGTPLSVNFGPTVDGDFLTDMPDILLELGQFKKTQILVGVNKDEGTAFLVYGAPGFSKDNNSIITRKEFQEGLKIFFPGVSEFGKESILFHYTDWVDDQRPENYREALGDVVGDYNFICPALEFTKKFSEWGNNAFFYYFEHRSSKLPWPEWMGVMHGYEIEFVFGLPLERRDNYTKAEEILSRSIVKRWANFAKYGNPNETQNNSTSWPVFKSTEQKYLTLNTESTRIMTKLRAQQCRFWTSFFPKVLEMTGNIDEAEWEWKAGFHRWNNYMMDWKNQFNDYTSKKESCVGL
human AChE, sequence (P22303 32-614): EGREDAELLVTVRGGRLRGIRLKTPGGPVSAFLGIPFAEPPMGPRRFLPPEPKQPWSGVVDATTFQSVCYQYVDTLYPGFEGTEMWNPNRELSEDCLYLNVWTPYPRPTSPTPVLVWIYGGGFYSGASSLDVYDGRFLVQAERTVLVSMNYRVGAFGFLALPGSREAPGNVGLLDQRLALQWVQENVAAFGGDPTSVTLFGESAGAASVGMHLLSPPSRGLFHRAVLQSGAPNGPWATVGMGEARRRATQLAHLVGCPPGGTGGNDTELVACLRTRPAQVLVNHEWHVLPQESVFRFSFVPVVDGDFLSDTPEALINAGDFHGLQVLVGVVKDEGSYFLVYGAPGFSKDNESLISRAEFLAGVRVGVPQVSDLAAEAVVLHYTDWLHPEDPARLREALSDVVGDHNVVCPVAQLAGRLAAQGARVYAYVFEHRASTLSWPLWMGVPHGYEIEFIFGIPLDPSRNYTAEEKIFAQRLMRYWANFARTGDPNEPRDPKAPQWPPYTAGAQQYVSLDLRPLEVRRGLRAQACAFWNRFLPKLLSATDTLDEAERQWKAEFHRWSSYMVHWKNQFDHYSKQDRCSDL

In the case of `O=C(c1ccc(=O)[nH]c1)N(Cc1ccccc1)Cc1ccccc1` [Example 1, 5-(N,N-Dibenzyl)aminocarbonyl-2-pyridone], the Ki turned out to be 37.5 µM on human BuChE and 260 µM on human AChE (setting [2]). In the experiment with human trypsin, the “effect on enzymatic activity of trypsin itself” value is “do not have direct effect on trypsin alone”. The “effect on trypsin-like activity associated with BuChE (rate of hydrolysis of BAPNA)” value in experiment [1] is “increased the rate of hydrolysis; also recorded: considerably enhanced”.

As for `CC(C)N(C(=O)c1ccc(=O)[nH]c1)C(C)C` [Example 2, 5-(N,N-Diisopropyl)aminocarbonyl-2-pyridone], the figures for the Ki at human BuChE and on human AChE (setting [2]) were 1430 µM and 131 µM, respectively.

Consider `CCN(CC)C(=O)c1ccc(=O)[nH]c1` [Example 3, 5-(N,N-Diethyl)aminocarbonyl-2-pyridone], for which the Ki stood at 1300 µM on human BuChE and 7600 µM at human AChE (setting [2]).

As to `CCN(CC)Cc1ccc(=O)[nH]c1` [Example 4, 5-(N,N-Diethyl)aminomethyl-2-pyridone], the “inhibitory activity towards each cholinesterase studied (comparison)” value against human BuChE (BuChE versus AChE) is listed as “equal inhibitory activity”. The Ki on human BuChE stood at 3890 µM; on human AChE (setting [2]), 4770 µM.

`O=C(NC1CCCCC1)c1ccc(=O)[nH]c1` [Example 7, 5-(N-Cyclohexyl)aminocarbonyl-2-pyridone]: at human BuChE, the Ki worked out at 137 µM. Further, the “inhibition of the activity of AChE on acetylthiocholine (in words)” value against human AChE is “no inhibition”. For the same molecule, the “Esterase Ki AChE(h)” value on human AChE (setting [2]) was “Insignificant inhibition”.

Source of the values: patent US6544986B2, “Pyridones and their use as modulators of serine hydrolase enzymes” (Dalhousie University, priority 2000, dated 2003).
